In US11628179B2, “Compounds for treating and preventing extracellular histone mediated pathologies” (priority 2017, dated 2023):
Values joined by “and” are separate entries in the source; they are usually repeats but may differ in a detail not shown here. Equal values may be shown once. Where a name gives a salt, the structure may show the parent alone.

How the values were obtained:
[1] = Pharmacokinetics, intravenous bolus 20 mg/kg; type: in vivo, rat
Experimental: A total of ten blood samples were collected from three rats at time points ranging from pre-dose to 48 hours post-dose. The resulting blood samples were processed to plasma and subsequently analysed for the concentration of mCBS (free-base) using an LC-MS/MS based method. The plasma concentration versus time data were used for calculation of pharmacokinetic parameters.

Wistar rats = assay: Rat caecal ligation and puncture (CLP), moderate sepsis; type: in vivo
Experimental: Male Wistar rats (n=8/group) underwent laparotomy, caecal ligation and puncture (CLP) to stimulate faecal peritonitis and subsequent sepsis, then treated with saline (Control CLP) or 50 mg/kg of mCBS at 0, 5 and 10 hr post-op via i.p. injection and monitored for 20 hr. Once rats reached a state of severe morbidity they were humanely euthanased at which point a death was recorded.
Rat caecal ligation and puncture (CLP) assay for sepsis. The CLP assay was performed in male Wistar rats as previously described (see Hubbard, W. J. et al. Cecal ligation and puncture. Shock 24 Suppl 1, 52-57 (2005).). Test compounds (50 mg kg^−1) dissolved in saline or an equivalent volume of saline only (Control cohort) were administered i.p. 5 min pre-CLP and 5, 10 and 15 h post-op until cessation of the experiment at 20 h. Sham-CLP rats underwent the same procedure, however, the caecum was not ligated or punctured and these rats received saline at the same times as above. At the conclusion of the experimental time period (20 h) or when morbidity required ethical euthanasia, the rats were anaesthetised and blood was collected via cardiac puncture into EDTA for subsequent analysis of liver (ALT) and kidney (creatinine) function by the Department of Pathology, The Canberra Hospital. The propensity for clots to form within the blood samples of the saline treated control CLP animals (despite the presence of EDTA) prevented successful analysis of plasma samples from all animals.

C57BI/6 mice = assay: EAE model of multiple sclerosis; type: in vivo, mouse; conditions: 50 mg/kg i.p. daily day 0-9, 35 day window
Experimental: EAE Model of Multiple Sclerosis. EAE was induced in 8-12 week old C57BI/6 mice by subcutaneous immunisation with 115 μg/mouse myelin oligodendrocyte glycoprotein (MOG35-55 genscript) in Complete Freund's Adjuvant (Sigma) on day 1. 300 ng/mouse Pertussis toxin (List Biological Laboratories) in PBS was injected intra peritoneal (i.p.) on days 0 and 2. 50 mg/kg mCBS in PBS or PBS alone (vehicle) was given i.p. daily for day 0-9. Mice were monitored daily for signs of disease and were scored on a scale of 0-5 based on physical manifestations of disease. Mice were scored as follows: 0, clinically normal; 1, flaccid tail and/or ataxia; 2, hind limb weakness; 3, hind limb paralysis; 4, hind and front limb paralysis; and 5, moribund.

human plasma proteins = assay: Plasma protein binding by ultrafiltration, human plasma; type: in vitro ADME; conditions: for Concentration of mCBS, 200 ng/mL Post-filter / Concentration of mCBS, 200 ng/mL Pre-filter / Concentration of mCBS, 2000 ng/mL Post-filter / Concentration of mCBS, 2000 ng/mL Pre-filter: replicates and Mean
Experimental: Protein binding was assessed by an ultrafiltration method using Centrifree® Ultrafiltration Devices with a 30000 dalton molecular weight cut-off point. Briefly, known concentrations of mCBS (as free base) were added to human, rat and dog plasma samples and incubated for 20 min at 37° C. The samples were then subject to ultrafiltration to separate protein bound and unbound drug.
mCBS stock solutions (10 μL) were spiked into solutions of each test matrix (490 μL) as listed below in Table 9 to have a final concentration of 200 ng/mL & 2000 ng/m L.
Spiked samples were then incubated at 37° C. for 20 minutes in a water bath. Aliquots of the samples from each test group (500 μL) were transferred to the ultrafiltration devices (n=3) and centrifuged for 20 minutes at 1000 g. After centrifugation, aliquots of the ultrafiltrates (50 μL) were transferred to separate test tubes for extraction, alongside duplicate aliquots of the samples prior to ultrafiltration from each test group.
For quantification of samples before ultrafiltration, samples were analysed against a freshly prepared standard curve in plasma.

HMEC-1 = assay: Histone-induced calcium flux in endothelial cells; type: cell-based, human; conditions: mCBS 100 μg ml−1, histones 100 μg ml−1
Experimental: Calcium flux studies in endothelial cells. HMEC-1 (2×10^7 ml^−1) in RPMI-1640 medium were incubated with Indo-1 AM (5 μM)(ThermoFisher) at 37° C. for 60 min. […] The cell suspension was kept on ice and used within 3 h. Intracellular Ca^2+ flux was monitored using flow cytometry. The cells were pre-equilibrated and maintained at 37° C. during analysis using an external sheath connected to a heated water bath. After the exclusion of cellular debris and clumped cells (on the basis of FSC/SSC light scattering) the basal Ca^2+ level was monitored for 2 min before histone addition in the presence/absence of novel compounds. Ca^2+ levels were measured at 1, 4 and 10 min post-histone addition with a constant flow rate (˜300 events/sec). Ca^2+ flux was determined as an increase in the ratio of geometric mean fluorescence intensity (GMFI) of Ca^2+-bound over Ca^2+-unbound Indo-1.

[2] = IV bolus 20 mg/kg as sodium salt

CO[C@@H]1O[C@H](COS(=O)(=O)O)[C@@H](O[C@@H]2O[C@H](COS(=O)(=O)O)[C@@H](OS(=O)(=O)O)[C@H](OS(=O)(=O)O)[C@H]2OS(=O)(=O)O)[C@H](OS(=O)(=O)O)[C@H]1OS(=O)(=O)O [mCBS, β-O-methyl cellobioside sulfate]
AUCinf, mean (±SEM) [1, 2]: 35000 (±2940) ng·h/mL
AUClast, mean (±SEM) [1, 2]: 34300 (±2460) ng·h/mL
apparent elimination half-life (T½), mean (±SEM) [1, 2]: 77.5 (±54.5) h
mean residence time (MRT), mean (±SEM) [1, 2]: 5.58 (±3.99) h
total body clearance (Cl), mean (±SEM) [1, 2]: 0.472 (±0.0377) L/h/kg
volume of distribution (Vz), mean (±SEM) [1, 2]: 46.9 (±30.7) L/kg
concentration at time zero (C0), mean (±SEM) ([1]; IV bolus 20 mg/kg as sodium salt (16.3 mg/kg free base), plasma, n=3): 73400 (±8560) ng/mL
administered dose removed from the central compartment ([1]; IV bolus 20 mg/kg, first 4 hours): over 90%
survival rate (Wistar rats; 50 mg/kg i.p. at 0, 5 and 10 hr post-op, monitored 20 hr): 100%
circulating LDH levels (Wistar rats; 50 mg/kg i.p., Control CLP 1.1±0.2, p=0.03): 0.6±0.1 U/L×10^3
ALT or creatinine levels between the groups (Wistar rats; mCBS vs Control CLP): No differences
protection from EAE development (C57BI/6 mice): substantial protection
Plasma protein binding (%) (human plasma proteins; 200 ng/mL): 22.3%
Plasma protein binding (%) (human plasma proteins; 2000 ng/mL): 15.8%
Concentration of mCBS, 200 ng/mL Post-filter (human plasma proteins): 181 ng/mL and 150 ng/mL and 169 ng/mL
Concentration of mCBS, 200 ng/mL Pre-filter (human plasma proteins): 217 ng/mL and 213 ng/mL
Concentration of mCBS, 2000 ng/mL Post-filter (human plasma proteins): 1860 ng/mL and 1750 ng/mL and 1770 ng/mL
Concentration of mCBS, 2000 ng/mL Pre-filter (human plasma proteins): 2190 ng/mL and 2070 ng/mL
Concentration of mCBS, 200 ng/mL Post-filter (human plasma proteins; mean): 167 ng/mL
Concentration of mCBS, 200 ng/mL Pre-filter (human plasma proteins; mean): 215 ng/mL
Concentration of mCBS, 2000 ng/mL Post-filter (human plasma proteins; mean): 1793 ng/mL
Concentration of mCBS, 2000 ng/mL Pre-filter (human plasma proteins; mean): 2130 ng/mL
histone-induced Ca2+ flux (HMEC-1): substantially inhibited the response
